Reference: patent US4489091A, “Antilipemic and anti-inflammatory compositions containing sulfonate derivatives” (Taiho Pharmaceutical Company Limited, priority 1980, dated 1984)
Where two headings read alike, the source gives them in different places.

Columns and labels:
[1] = Acute toxicity; settings: rat, in vivo
From the text: Six-week-old male Wistar rats weighing 180 to 200 g are used, 5 rats in each group. Each compound of the invention is suspended in a 30% aqueous solution of polyethylene glycol 6000 and orally given to the rat at the dosage shown in Table 2. The animals are checked for poisoning, body weight and survival to determine the LD50 value.

[2] = tested on: triglycerides; test: Antilipemic effect: percent triglycerides inhibition in plasma of rats given an olive oil-cholesterol mixture; format: in vivo, male Wistar rats; settings: for inhibition in vivo at 100 mg/kg: oral 100 mg/kg, read-out: Anti-lipemic effect, TG (percent triglycerides inhibition); for inhibition in vivo at 100 mg/kg / inhibition in vivo at 200 mg/kg: plasma 2 hours after dosing, Wistar rat; for inhibition in vivo at 200 mg/kg: oral 200 mg/kg (asterisked values), read-out: Anti-lipemic effect, TG (percent triglycerides inhibition), asterisked; for TG (percent triglycerides inhibition), Table 3: dose not given
Procedure: (§1) The above compounds of this invention are tested by the following methods for antilipemic effect and acute toxicity. In the column of antilipemic effect in the table, the asterisked values indicate the effect achieved by orally giving 200 mg/kg of the compounds concerned, and the unmarked values, the effect attained by orally giving 100 mg/kg. In the same column, "TG" stands for percent triglycerides inhibition and "CS" percent cholesterol inhibition.
(§2) Seven-week-old male Wistar rats weighing 200 to 220 g are used, 5 rats in each group.
(§3) Each compound of the invention (100 mg or 200 mg) is dissolved in 10 ml of an olive oil-cholesterol mixture (containing 15% of cholesterol). The mixture containing the compound is orally given to the rat with a probe at a dose of 10 ml/kg. Two or 8 hours thereafter, 6 ml of whole blood is withdrawn from the descending aorta of the rat under ether anesthesia with a syringe containing heparin. The blood is centrifuged at 5° C. and 3000 r.p.m. to obtain the plasma. The plasma collected after the lapse of 2 hours is used for determining the triglycerides content, and the plasma obtained 8 hours later for determining the total cholesterol content, using a triglycerides measuring kit (trade mark "Triglycerides-B Test Wako," product of Wako Junyaku Co., Ltd., Japan) and a total cholesterol measuring kit (trade mark "Cholesterol Test Wako," product of the same), respectively. The olive oil-cholesterol mixture containing no compound is similarly given to a control group, while no treatment is conducted for a normal group. The triglycerides and total cholesterol contents in the plasma are also determined for these groups in the same manner as is the case with the test groups.
(§4) The present hyperlipidemia inhibition achieved by the present compound is given by [formula] in which A is the triglycerides (cholesterol) content of the control group, B is the triglycerides (cholesterol) content of the normal group, and C is the triglycerides (cholesterol) content of the group to which the present compound is given.

[3] = biological target: esterase; test: Esterase inhibiting activity; format: biochemical; settings: rat liver microsome esterase, methyl butyrate substrate, pH 8.0, 37° C., 60 minutes; read-out: IC50 for esterases
Procedure: A 10 micromole quantity of methyl butyrate in a 50% ethanol solution is added as a substrate to a specified amount of buffer solution containing 0.1 mole of trishydrochloric acid (pH 8.0). To the mixture is further added a 50% ethanol solution of the compound of the invention, immediately followed by addition of an esterase solution prepared from a purified microsome fraction of the liver of a rat (adjusted to hydrolyze 9 micromoles of methyl butyrate at 37° C. in one hour) as an enzyme solution. The mixture is reacted at 37° C. for 60 minutes.
After the reaction, alkaline hydroxylamine is added to the mixture to form a hydroxamic acid derivative of methyl butyrate, and a ferric salt is added to the derivative. The resulting red color is colorimetrically determined (at a wavelength of 540 nm) to determine the amount of remaining methyl butyrate. The esterase inhibiting ratios of the present compound at least at three concentrations are plotted as ordinate, and the logarithms of the concentrations as abscissa to obtain a line, which gives the 50% inhibition concentration (IC50).

[4] = tested on: cholesterol; test: Antilipemic effect: percent total cholesterol inhibition in plasma of rats given an olive oil-cholesterol mixture; format: in vivo, male Wistar rats; settings: oral 100 mg/kg, plasma 8 hours after dosing, Wistar rat; read-out: Anti-lipemic effect, CS (percent cholesterol inhibition)
Procedure: as §1, §2, §3, §4

[5] = biological target: chymotripsin (Bos taurus, UniProt P00766); test: Chymotripsin inhibiting activity; format: biochemical; settings: 0.5 h; compound 1×10^-4 mole, ATEE substrate, pH 8.0, 37° C.; read-out: Percent chymotripsin inhibition
Procedure: Chymotripsin (0.1 unit) serving as an enzyme solution is added to a specified quantity of buffer solution containing 0.1 mole of trishydrochloric acid (pH 8.0). To the mixture is further added a 50% ethanol solution of the compound of the invention so that the resulting mixture contains the compound in a concentration of 1×10^-4 mole. The mixture is reacted at 37° C. for 20 minutes.
On completion of the reaction, 10 micromoles of N-acetyl-L-thyrosine ethyl ester (ATEE) serving as a substrate is added to the mixture, and the resulting mixture is reacted at 37° C. for 30 minutes.
After the completion of the reaction, the amount of remaining ATEE is determined by the same hydroxamic acid method as above. The percent chymotripsin inhibition is given by [formula] wherein A is the amount of hydrolyzed esters in the reaction system not containing the compound of the invention, and B is the amount of hydrolyzed esters in the reaction system containing the present compound.

Row | IC50 [3] | inhibition at 100 µM [5] | SMILES | inhibition in vivo at 100 mg/kg [2] | inhibition in vivo at 100 mg/kg [4] | LD50 ([1]; po) | other results
1 | – | – | CCCC(C)C(=O)COS(=O)(=O)c1ccc(OCC)cc1 (centres unmarked) [Compound 133] | 111% | 91% | > 4500 mg/kg | –
2 | – | – | CCOc1ccc(S(=O)(=O)OCC(=O)CC(C)CC)cc1 (centres unmarked) [Compound 136] | 80% | 99% | > 4500 mg/kg | –
3 | – | – | CCCCC(C)C(=O)COS(=O)(=O)c1ccc(OCC)cc1 (centres unmarked) [Compound 139] | 84% | 87% | > 3000 mg/kg | –
4 | – | – | CCCCC(CCC)C(=O)COS(=O)(=O)c1ccc(OCC)cc1 (centres unmarked) [Compound 140] | 67% | 61% | > 3000 mg/kg | –
5 | – | – | CCCCC(CCCC)C(=O)COS(=O)(=O)c1ccc(OCC)cc1 [Compound 141] | 68% | 66% | > 3000 mg/kg | –
6 | – | – | CCCCCC(C)C(=O)COS(=O)(=O)c1ccc(OCC)cc1 (centres unmarked) [Compound 146] | 85% | 77% | > 4000 mg/kg | –
7 | – | – | CCC(C)C(=O)COS(=O)(=O)c1c(C)cc(C)cc1C (centres unmarked) [Compound 147] | 98% | 72% | > 3000 mg/kg | –
8 | – | – | CCC(CC)C(=O)COS(=O)(=O)c1c(C)cc(C)cc1C [Compound 148] | 96% | 80% | > 3000 mg/kg | –
9 | – | – | CCCC(C)C(=O)COS(=O)(=O)c1c(C)cc(C)cc1C (centres unmarked) [Compound 150] | 84% | 79% | > 3000 mg/kg | –
10 | – | – | CCCC(CCC)C(=O)COS(=O)(=O)c1c(C)cc(C)cc1C [Compound 152] | 78% | 69% | > 4000 mg/kg | –
11 | – | – | CCC(CC)CC(=O)COS(=O)(=O)c1c(C)cc(C)cc1C [Compound 154] | 76% | 70% | > 4000 mg/kg | –
12 | – | – | CCCCC(C)C(=O)COS(=O)(=O)c1c(C)cc(C)cc1C (centres unmarked) [Compound 155] | 67% | 71% | > 3000 mg/kg | –
13 | – | – | CCCCC(CCC)C(=O)COS(=O)(=O)c1c(C)cc(C)cc1C (centres unmarked) [Compound 156] | 58% | 62% | 4000 mg/kg | –
14 | – | – | CCCCC(CCCC)C(=O)COS(=O)(=O)c1c(C)cc(C)cc1C [Compound 157] | 67% | 66% | > 4000 mg/kg | –
15 | – | – | CCC(C)CCC(=O)COS(=O)(=O)c1c(C)cc(C)cc1C (centres unmarked) [Compound 159] | 49% | 51% | > 4000 mg/kg | –
16 | – | – | CCC(CC)CCC(=O)COS(=O)(=O)c1c(C)cc(C)cc1C [Compound 160] | 42% | 40% | > 4000 mg/kg | –
17 | – | – | Cc1cc(C)c(S(=O)(=O)OCC(=O)CCCC(C)C)c(C)c1 [Compound 161] | 51% | 56% | > 3000 mg/kg | –
18 | 1600 nM | 13% | O=C(COS(=O)(=O)c1ccccc1)C1CCCCC1 [Compound 163] | – | – | – | –
19 | 4400 nM | 90% | Cc1ccc(S(=O)(=O)OCC(=O)CC2CCCC2)cc1 [Compound 165] | – | – | – | –
20 | 3500 nM | 98% | Cc1ccc(S(=O)(=O)OCC(=O)CC2CCCCC2)cc1 [Compound 166] | – | – | – | –
21 | 800 nM | – | O=C(COS(=O)(=O)c1ccc(O)cc1)CC1CCCCC1 [Compound 169] | – | – | – | –
22 | 800 nM | – | Cc1cc(C)c(S(=O)(=O)OCC(=O)C2CCCCC2)c(C)c1 [Compound 176] | – | – | – | –
23 | 200 nM | 10% | Cc1cc(C)c(S(=O)(=O)OCC(=O)CC2CCCCC2)c(C)c1 [Compound 177] | – | – | – | –
24 | 1500 nM | 32% | O=C(COS(=O)(=O)c1ccc(Cl)cc1)C1CCCCC1 [Compound 179] | – | – | – | –
25 | 32000 nM | – | Cc1cc(C)c(S(=O)(=O)OCC(=O)C2CCOCC2)c(C)c1 [Compound 186] | – | – | – | –
26 | 820 nM | 46.8% | O=C(CCCCl)COS(=O)(=O)c1ccccc1 [Compound 193, 2-oxo-5-chloro-n-pentyl-benzene sulfonate] | – | – | – | –
27 | 2400 nM | 3.2% | COCCCC(=O)COS(=O)(=O)c1ccccc1 [Compound 194] | – | – | – | –
28 | 30000 nM | 47% | O=C(CCCCCNC(=O)OCc1ccccc1)COS(=O)(=O)c1ccccc1 [Compound 197] | – | – | – | –
29 | 170000 nM | 33% | CCOc1ccc(S(=O)(=O)OCC(=O)CCCC(=O)OC)cc1 [Compound 201, 2-oxo-5-methoxycarbonyl-n-pentyl-p-ethoxybenzene sulfonate] | – | – | – | –
30 | 1500 nM | 10% | COCCCC(=O)COS(=O)(=O)c1c(C)cc(C)cc1C [Compound 205] | – | – | – | –

Row | SMILES | IC50 [3] | inhibition at 100 µM [5] | inhibition in vivo at 100 mg/kg [2] | inhibition in vivo at 100 mg/kg [4] | LD50 ([1]; po) | other results
31 | CCCC(=O)COS(=O)(=O)CC [Compound 1, 2-oxopentylethane sulfonate] | 12000 nM | – | 92% | 89% | – | LD50 ([1]; oral, six-week-old male Wistar rats, suspended in 30% aqueous polyethylene glycol 6000, read-out: LD50): > 1000 mg/kg
32 | Cc1ccc(S(=O)(=O)OCC(=O)CCCCCCC(C)C)cc1 [Compound 27] | 670 nM | 17% | – | – | > 3000 mg/kg | inhibition in vivo at 200 mg/kg [2]: 59%
33 | C=CCCCCCCCCC(=O)COS(=O)(=O)c1ccc(C)cc1 [Compound 28] | 230 nM | 15% | – | – | > 3000 mg/kg | inhibition in vivo at 200 mg/kg [2]: 61%
34 | CCCCCC(=O)COS(=O)(=O)c1ccc(Cl)cc1 [Compound 66] | 2600 nM | 100% | 88% | – | – | –
35 | O=C(CCC1CCCCC1)COS(=O)(=O)c1ccccc1 [Compound 164, 2-oxo-4-cyclohexyl-butylbenzenesulfonate] | 2200 nM | 100% | – | – | – | TG (percent triglycerides inhibition), Table 3 [2]: 98%
36 | Cc1ccc(S(=O)(=O)OCC(=O)CCC2CCCCC2)cc1 [Compound 167] | 3100 nM | 100% | – | – | – | TG (percent triglycerides inhibition), Table 3 [2]: 53%
37 | Cc1ccc(S(=O)(=O)OCC(=O)CCc2ccccc2)cc1 [Compound 187] | 14000 nM | 100% | – | – | – | TG (percent triglycerides inhibition), Table 3 [2]: 94%
38 | O=C(CCc1ccccc1)COS(=O)(=O)c1ccc(Cl)cc1 [Compound 188] | 25000 nM | 100% | – | – | – | TG (percent triglycerides inhibition), Table 3 [2]: 95%
39 | CC(=O)OCCCC(=O)COS(=O)(=O)c1ccccc1 [Compound 195] | 26000 nM | 22.2% | – | – | – | TG (percent triglycerides inhibition), Table 3 [2]: 62%
40 | COC(=O)CCCC(=O)COS(=O)(=O)c1ccccc1 [Compound 196] | 6800 nM | 65.3% | – | – | – | TG (percent triglycerides inhibition), Table 3 [2]: 77.9%
